According to publication PMC5825103 (PLoS ONE, 2018):

How the values were obtained:
[1] = biological target: T1, MR-LBD binding to co-activator peptides (Homo sapiens, UniProt P08235, C808S); assay: co-factor peptide recruitment by surface plasmon resonance; conditions: 50 μM compound, relative to dexamethasone, seven peptides
T1 construct: MR-LBD (amino acids 712–984) with the mutations C808S; 6-HN tag (thrombin cleavable) (N); made in house
T1 sequence (P08235 712-984 C808S): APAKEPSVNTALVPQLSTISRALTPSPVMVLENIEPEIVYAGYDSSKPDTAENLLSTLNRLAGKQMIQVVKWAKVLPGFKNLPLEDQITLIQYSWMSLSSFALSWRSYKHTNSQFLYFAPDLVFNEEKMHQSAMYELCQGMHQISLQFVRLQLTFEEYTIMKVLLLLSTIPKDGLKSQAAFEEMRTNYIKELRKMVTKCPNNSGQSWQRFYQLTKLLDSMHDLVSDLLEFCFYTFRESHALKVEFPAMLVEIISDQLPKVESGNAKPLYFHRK
Method: Co-activator recruitment of MR was determined using surface plasmon resonance (SPR) biosensor (Biacore 3000, GE Healthcare) by probing the level of receptor binding to seven surface-immobilized co-activator peptides. All peptides carried an N-terminal biotin for surface-immobilisation, the following peptides and sequences were used:
Prior to the SPR measurements, excess dexamethasone was removed by gel filtration via a passage through a PD10 column (GE Healthcare) equilibrated in SPR running buffer (10 mM HEPES, 50 mM NaCl, 0,005% P20, pH 7.6). […] The surface was prepared through immobilization of the biotinylated peptides on a streptavidin chip (GE Healthcare) to levels of 1000±300 RU. The binding level at equilibrium was monitored for all samples including the reference sample that contained remaining traces of dexamethasone. All data was normalized to this reference sample in order to quantify the effects on peptide binding without bias by receptor instability. The surface was regenerated with 0.5% (w/v) SDS after each injection.

[2] = system: uni-nephrectomised db/db mice; assay: organ protection in db/db uni-nephrectomised mice; type: in vivo
Method: Obese diabetic male db/db mice (BKS.Cg-Dock7^m +/+ Lepr^db/J homozygotes) and their littermate male db/m mice were obtained from the Jackson Laboratory (Bar Harbor, ME, USA). […] Mice were subjected to right uninephrectomy at 8 weeks of age to hasten the development of diabetic nephropathy as described previously [43]. Db/m mice that received a uninephrectomy at 8 weeks of age served as the operation control. […] All surgery was performed under isoflurane anesthesia, and all efforts were made to minimize suffering.
The blood glucose level and glycosylated hemoglobin (HbA1C) levels were monitored in tail blood samples using a blood glucose meter (Glucometer Elite XL, Bayer Healthcare, Elkhart, IN, USA) and the DC 2000+ HbA1C kit (Bayer Healthcare), respectively, before treatment and at the time of sacrifice. Twenty-four-hour urine was obtained from each mouse after placement in metabolic cages before treatment and at the time of sacrifice. Urine albumin was measured using the DC2000+ microalbumin reagent kit (Bayer Healthcare).
Mice were sacrificed under isoflurane anesthesia. Blood samples were obtained by cardiac puncture for the measurements of plasma compound, K^+ and creatinine concentrations. Plasma K^+ levels were determined on a Radiometer ABL 700 blood gas analyser (Radiometer, Copnchagen DK). Plasma creatinine levels were determined by LC-MS/MS. Urine creatinine was measured by the Jaffe method (Creatinine FS, REF117119910021, DiaSys). Kidneys were perfused through the heart with cold PBS and then excised. One piece of renal cortex was fixed in 10% neutralized formalin for histological staining.
Formalin-fixed renal cortex tissues were subsequently embedded in paraffin. Three-micrometer sections were cut from the tissue blocks and stained with periodic acid-Schiff (PAS). The PAS-positive glomerular matrix was quantitated in a blinded fashion by a computer-assisted method as previously described [43]. At least 20 glomeruli from each individual mouse were assessed. The PAS-positive material area in the mesangium was normalized by that of the total glomerular tuft where the percentage of mesangial matrix occupying each glomerulus area was rated. Glomerular sclerosis index was graded from 0 to 4+ as follows: 0 represents no lesion, 1+ represents sclerosis of <25% of the glomerulus, while 2 =, 3+ and 4+ represent sclerosis of 25% to 50%, >50% to 75%, and >75% of the glomerulus, respectively. A whole kidney average sclerosis index was obtained by averaging scores from all glomeruli on one section.

| co-activator peptide binding [1] | Compound | FE K+ end ([2]; after 4 weeks treatment) | FE Na+ end ([2]; after 4 weeks treatment) | UAE w22 ([2]; after 4 weeks treatment) | p-K+ end ([2]; after 4 weeks treatment) | u-K+ end ([2]; after 4 weeks treatment) | u-Na+ end ([2]; after 4 weeks treatment) | u-Na+/K+ end ([2]; after 4 weeks treatment) | UAE w18 ([2]; before treatment, 18 weeks of age) | increased injury (glomerular ECM scoring) from week 18 to 22 ([2]; four week treatment) |
| --- | --- | --- | --- | --- | --- | --- | --- | --- | --- | --- |
| strongest peptide binding | C[C@]12CCC(=O)C=C1CC[C@@H]1[C@@H]2[C@@H](O)C[C@]2(C=O)[C@@H](C(=O)CO)CC[C@@H]12 [aldosterone] |  |  |  |  |  |  |  |  |  |
|  | CCOC(=O)[C@H](CCc1ccccc1)N[C@@H](C)C(=O)N1CCC[C@H]1C(=O)O [enalapril] | 15.6 ± 0.4% | 0.18 ± 0.01% | 583 ± 97 µg 24h-1 | 4.4 ± 0.1 mM | 0.90 ± 0.07 mmol/24h | 0.36 ± 0.03 mmol/24h | 0.40 ± 0.01 | 958 ± 184 µg 24h-1 | prevented |
